Patent publication US11447638B2, “Acetalanthraquinone derivatives useful for cellular staining” (BIOSTATUS LIMITED, priority 2016, dated 2022)

Key:
[1] = Absorption and fluorescence spectra of compounds in PBS or HEPES; assay type: physicochemical; settings: for fluorescence emission, 540 nm (Ex in PBS): excited at 540 nm
Method: The compounds were exited at 540 nm and at the wavelength of their absorption peak 1 (λ1 nm). The far-red fluorescent DNA dye DRAQ5 was used as reference.
Compounds were dissolved in DMSO (Sigma) to 20 mM stock concentration. DRAQ5 (Biostatus Ltd) was used as a control anthraquinone agent dissolved in deionised water. Working solutions were prepared in PBS (phosphate buffered saline; Sigma) or HEPES (4-(2-hydroxyethyl)-1-piperazineethanesulfonic acid; Sigma) at 20 or 40 μM. Probe solutions (20 μM), respectively in PBS or HEPES, were pipetted into a 1 mL quartz cuvette (Thermo Fisher Scientific). After obtaining baseline spectra in relevant buffer to zero the instrument, absorbance measurements were obtained using a Beckmann Coulter DU 800 UV/Visible spectrophotometer. The excitation wavelengths were scanned from 280 to 800 nm. Fluorescent spectral scans were performed using a Perkin Elmer LS-50B Luminescence spectrophotometer. To obtain emission scans, the excitation wavelength was set accordingly to the maximum values for each agent or another designated excitation wavelength that matches typical laser lines; and the emission wavelength were scanned from 400 nm to 900 nm in 1 nm increments. A Xenon flash lamp was used as the light source, with the lamp energy set to high. For each data point ten measurements were acquired with the photomultiplier tube sensitivity set at 125.
Compounds were excited at a wavelength corresponding to the first absorbance peak 1 (FIG. 1A and FIG. 1B show absorption (line) and fluorescence (dots) spectra of compounds; both are normalised to peak value.

[2] = test system: fixed human osteosarcoma U-2 OS cells; assay: Labelling of fixed cells, wide-field fluorescence microscopy; assay type: cell-based; settings: 20 μM, 1 h exposure in PBS, FIG. 2
Method: Cells were seeded in a 24 well coverslip bottomed-plate, cultured overnight in McCoys media. 24 or 48 hours later the cells were washed gently with 3×2 mL PBS per well. The PBS was removed and 0.5 mL of 4% paraformaldehyde solution [a 4% paraformaldehyde solution in PBS was made fresh each time from a 16% stock solution (Thermo Fisher Scientific)] was added in each well and cells were incubated for 30 min. The paraformaldehyde was removed and cells were washed 3×2 mL PBS per well. 1 mL of PBS or HEPES was added to each well.
(§1) Before analysis, cells were incubated at 37° C. in the dark for the period designated. Samples were analysed directly without any further washing step. For live cell labelling cells were seeded, plated in a similar way, into a similar multi-well dish for optimal optical performance and could be used across all microscope platforms.
(§2) This basic protocol was the standard for testing the patterns of AAQ agents at 20 μM, compared to 20 μM of DRAQ5 as the benchmark reference (both in terms of cellular location and ability to detect the red fluorescence).
Low resolution wide-field fluorescence microscopy was used to evaluate cell labelling in fixed human osteosarcoma U-2 OS cells. The system was an Axiovert 100 microscope (Carl Zeiss, Welwyn Garden City, UK) ×10 0.3 NA air objective lens and an ORCA-ER CCD camera (Hamamatsu, Reading, UK). Illumination was controlled by a shutter in front of the transmission lamp. Image capture was controlled using Metamorph software. This evaluates the ability of the compounds to label cellular compartments without active uptake or efflux prohibiting delivery into the given cell. Image collection was performed after 1 h of exposure to probes in PBS. The calibration bar represents 50 μm.

A549 live cells = assay: Loading of A549 live cells, wide-field fluorescence microscopy; assay type: cell-based, human; settings: 20 μM, 30 min incubation, FIG. 3
Method: as §1, §2
Low resolution wide-field fluorescence microscopy was used to evaluate cell uptake and localisation of the probe compounds. The system was an Axiovert 100 microscope (Carl Zeiss, Welwyn Garden City, UK) ×10 0.3 NA air objective lens and an ORCA-ER CCD camera (Hamamatsu, Reading, UK). Illumination was controlled by a shutter in front of the transmission lamp. Image capture was controlled using Metamorph software. Human non-small cell lung cancer A549 cell line was used as the cell model to determine whether variation of the probe loading and localisation occurred in cell population sustaining a “side population” (SP) (Smith P J, Wiltshire M, Chappell S C, Cosentino L, Burns P A, Pors K, Errington R J. Kinetic analysis of intracellular Hoechst 33342—DNA interactions by flow cytometry: misinterpretation of side population status? Cytometry A 2013; 83:161-9) with a known capacity to efflux xenobiotic molecules, including the DNA dye Hoechst 33342.
Cells were incubated for 30 min with each compound and then images were collected at a 30 ms exposure time using low resolution wide-field fluorescence microscopy. Using an Axiovert 100 microscope (Carl Zeiss, Welwyn Garden City, UK) ×10 0.3 NA air objective lens and an ORCA-ER CCD camera (Hamamatsu, Reading, UK). Illumination was controlled by a shutter in front of the transmission lamp. Image capture was controlled using Metamorph software. The calibration bar represents 50 μm.

2780/cp70 = assay: Further tests against cell lines, 2780/cp70; assay type: cell-based; settings: ratio to A2780
MCP1 = assay: Further tests against cell lines, MCP1; assay type: cell-based; settings: ratio to A2780
Method: (§3) Further tests were carried out against A2780, 2780AD and MCP1 cell lines.

2780AD = assay: Further tests against cell lines, 2780AD; assay type: cell-based; settings: ratio to A2780
Method: as §3

U-2 OS cells = assay: Confocal laser scanning microscopy (CLSM) localisation analysis; assay type: cell-based, human; settings: 30 min incubation, Ex 637 nm, Em >665 nm, FIG. 4 and 5
Method: Confocal laser scanning microscopy (CLSM) was used to analyse the localisation of compounds BST-100, BST-101 and BST-106 with the U-2 OS cells, as it permitted the acquisition of volume limited optical sections through the cell and media. Excitation (637 nm) and emission (>665 nm) values for the probe analysis were the optimal conditions. The data sets obtained were processed and assembled into a single maximum projection image.
The patterns were analysed after 30 min incubation at different z depths and eliminating the solution background. The nucleus/cytoplasm ratio was calculated to quantify the localisation of the probe per cell.
A Radiance CLSM (BioRad Microscience) was used attached to an inverted Nikon microscope. Image acquisition was performed using excitation (637 nm) and emission (>665 nm) wavelengths. The histogram plot reports the nucleus/cytoplasm index to determine DNA binding in live cells. The calibration bar represents 10 μm.
The compounds BST-108, BST-109 were analysed in the same way.

A549 cells = assay: Pulse exposure to probes, time-lapse, reimaged after 72 h; assay type: cell-based, human; settings: 20 uM for 15 mins, washout, T=72 h
Method: In this regard, A549 cells were seeded in a 24 well coverslip bottomed-plate, cultured overnight in McCoys media for 24 or 48 hours. The plates were placed onto an inverted automated microscope, with the capacity for acquiring an image sequence of different wells (therefore exposure to different agent labelling). An Axiovert 100 microscope (Carl Zeiss, Welwyn Garden City, UK) was fitted with an incubator for 37° C./5% CO2 maintenance (Solent Scientific, Portsmouth, UK), and an ORCA-ER CCD camera (Hamamatsu, Reading, UK). Illumination was controlled by a shutter in front of the transmission lamp, and an x, y positioning stage with separate z-focus (Prior Scientific, Cambridge, UK) controlled multi-field acquisition. Image capture was controlled using Metamorph software.
Cells were exposed to a constant dose (0-5 μM) or a pulsed dose of 0 or 20 μM agent for 15 minutes followed by washout with warmed full media.
All images were collected with a ×10 (PH1) apochromat objective lens providing a field size of 500 times 500 microns. In this case a phase contrast image was collected every 30 minutes for 72 hours. Single cell growth and expansion can be tracked over time. The cells were harvested and run through a flow cytometry (typically a FACS Calibur 635 nm excitation/661/16 emission).
A549 cells were loaded with 20 uM BST-101, BST-109 or BST-110 for 15 mins followed by washout. Cells were then time-lapsed and reimaged after T=72 h, as before, […]

MCF7 = assay: MTT cellular viability (growth inhibition) assay, MCF7; assay type: cell-based; settings: Homo sapiens, 0.25-100 μM, 72 h, Table 3
Method: (§4) The viability of A549 or MCF7 in response to compounds was determined using the MTT (3-(4,5-dimethylthiazolyl-2-)-2, 5-diphenyltetrazolium bromide) assay according to the protocol set out in Mosmann T., Rapid colorimetric assay for cellular growth and survival: application to proliferation and cytotoxicity assays. Journal of immunological methods 1983; 65:55-63.
(§5) Initially, cells were seeded into a rounded-bottom 96 well plate (Corning) at six different cell seeding densities (0.5×104, 1×104, 2×104, 3×104, 4×104, and 5×104) per mL of R10 media (cells/mL) in order to optimise the assay and establish the most suitable seeding assay. Concentration of 1×10^4 cells/mL was determined to be the optimum seeding density for both cell lines for 96 h total incubation. A control lane contained supplemented R10 only. The 96 well plates were incubated overnight at 37° C., 5% CO2 and 100% humidity to allow cell adhesion. Cells were then treated respectively with novel AAQs (0.25-100 μM) or growth inhibition (IC50) of compounds of the invention was studied against MCF7 and A549 cancer cell lines. Compounds were tested with a concentration range between 0.25 and 100 μM for 72 h and doxorubicin, as positive cytotoxic control, was tested in parallel at the same doses.

A549 = assay: MTT cellular viability (growth inhibition) assay, A549; assay type: cell-based; settings: Homo sapiens, 0.25-100 μM, 72 h, Table 3
Method: as §4, §5

| Structure (SMILES) | RF (2780/cp70) | RF (MCP1) (MCP1) | RF (2780AD) | also measured |
| --- | --- | --- | --- | --- |
| COC(CNCCNc1ccc(NCCNCC(OC)OC)c2c1C(=O)c1c(O)ccc(O)c1C2=O)OC [BST-200, 1,4-bis((2-((2,2-dimethoxyethyl)amino)ethyl)amino)-5,8-dihydroxyanthracene-9,10-dione] | 0.09 | 0.26 | 2.9 | fluorescence emission, 540 nm (Ex in PBS) ([1]; PBS, 20 μM): 690 nm; fluorescence emission, λ1 nm (Ex in HEPES) ([1]; excited at absorption peak 1 (λ1), HEPES, 20 μM): 684 nm; fluorescence emission, λ1 nm (Ex in PBS) ([1]; excited at absorption peak 1 (λ1), PBS, 20 μM): 688 nm; fluorescence brightness / background in fixed cells [2]: very bright fluorescence; staining pattern in fixed cells [2]: cytoplasmic staining, good object recognition, and some heterogeneity on nuclear staining; staining pattern in live cells (A549 live cells): heterogeneity on cytoplasmic load on, with bright fluorescence signal and staining of mitotic figures |
| COC(CNCCNc1ccc(NCCN(C)C)c2c1C(=O)c1c(O)ccc(O)c1C2=O)OC [BST-302, 1-((2-((2,2-dimethoxyethyl)amino)ethyl)amino)-4-((2-(dimethylamino)ethyl)amino)-5,8-dihydroxyanthracene-9,10-dione] | 0.32 | 0.61 | 81.4 | – |
| COC(CNCCCCNc1ccc(NCCN(C)C)c2c1C(=O)c1c(O)ccc(O)c1C2=O)OC [BST-304, 1-((4-((2,2-dimethoxyethyl)amino)butyl)amino)-4-((2-(dimethylamino)ethyl)amino)-5,8-dihydroxyanthracene-9,10-dione] | 0.07 | 0.36 | 11.8 | – |
| COC(CNCCCCCNc1ccc(NCCN(C)C)c2c1C(=O)c1c(O)ccc(O)c1C2=O)OC [BST-305, 1-((5-((2,2-dimethoxyethyl)amino)pentyl)amino)-4-((2-(dimethylamino)ethyl)amino)-5,8-dihydroxyanthracene-9,10-dione] | 0.14 | 0.53 | 5.2 | – |
| N.N.[Cl][Pt][Cl] [Cisplatin, reference compound] | 5.37 | 1.26 | 4.6 | – |
| COC(CCCCNc1ccc(NCCCCC(OC)OC)c2c1C(=O)c1ccccc1C2=O)OC [BST-101, 1,4-Bis(5,5-dimethoxypentylamino)anthracene-9,10-dione] | – | – | – | peak excitation wavelength ([1]; excitation wavelength used for fluorescence spectra of FIG. 1A/1B): 540 nm; fluorescence emission, 540 nm (Ex in PBS) ([1]; PBS, 20 μM): 712 nm; staining pattern in fixed cells [2]: diffuse cytoplasmic staining, with some perinuclear and nucleoli labelling; staining pattern in live cells (A549 live cells): heterogeneous cytoplasmic staining; subcellular localisation by CLSM (U-2 OS cells): low levels of probe in the perinuclear region, with probable overload in Golgi body and large vesicles; cell division and signal retention / location after pulse exposure (A549 cells): dividing, and signal retained in the same membrane compartment as at the start; IC50 (MCF7): 750 nM; IC50 (A549): > 100000 nM |
| COC(CNCCCNc1ccc(NCCN(C)C)c2c1C(=O)c1c(O)ccc(O)c1C2=O)OC [BST-303, 1-((3-((2,2-dimethoxyethyl)amino)propyl)amino)-4-((2-(dimethylamino)ethyl)amino)-5,8-dihydroxyanthracene-9,10-dione] | 0.19 | 0.36 | 9.7 | – |
| COC(CNCCCCCCNc1ccc(NCCN(C)C)c2c1C(=O)c1c(O)ccc(O)c1C2=O)OC [BST-301, 1-((6-((2,2-dimethoxyethyl)amino)hexyl)amino)-4-((2-(dimethylamino)ethyl)amino)-5,8-dihydroxyanthracene-9,10-dione] | 0.10 | 0.39 | 2.8 | – |
